Test results taken from patent US10781181B2, “N-((het) arylmethyl)-heteroaryl-carboxamides compounds as plasma kallikrein inhibitors” (Kalvista Pharmaceuticals Limited, priority 2014, dated 2020).
Where two headings read alike, the source gives them in different places.

Columns and labels:
Format in all cases: biochemical
[1] = target: Human KLK1 (Homo sapiens (Human), UniProt P06870); assay: Determination of the IC50 for KLK1; conditions: human KLK1, 25° C., substrate H-DVal-Leu-Arg-AFC
Method: Determination of the IC50 for KLK1
(§1) Human KLK1 (Callbiochem) was incubated at 25° C. with the fluorogenic substrate H-DVal-Leu-Arg-AFC and various concentrations of the test compound. Residual enzyme activity (initial rate of reaction) was determined by measuring the change in […] at 410 nm and the IC50 value for the test compound was determined.

[2] = target: Human FXIa (Homo sapiens (Human), UniProt P03951); assay: Determination of the % inhibition for FXIa; conditions: read-out: % Inhibition @ 40 μM (human FXIa)
Method: Determination of the % Inhibition for FXIa
Human FXIa (Enzyme Research Laboratories) was incubated at 25° C. with the fluorogenic substrate Z-Gly-Pro-Arg-AFC and 40 μM of the test compound. Residual enzyme activity (initial rate of reaction) was determined by measuring the change in […].

[3] = target: Human plasma kallikrein (Homo sapiens (Human), UniProt P03952); assay: Determination of the IC50 for plasma kallikrein; conditions: read-out: IC50 (human PKal)
Method: Determination of the IC50 for Plasma Kallikrein
as §1, with “plasma kallikrein (Protogen)” for “KLK1 (Callbiochem)”, “H-DPro-Phe-Arg-AFC” for “H-DVal-Leu-Arg-AFC”

[4] = 40 μM of the test compound, human FXIa, 25° C.

Human KLK1, sequence (P06870 25-262): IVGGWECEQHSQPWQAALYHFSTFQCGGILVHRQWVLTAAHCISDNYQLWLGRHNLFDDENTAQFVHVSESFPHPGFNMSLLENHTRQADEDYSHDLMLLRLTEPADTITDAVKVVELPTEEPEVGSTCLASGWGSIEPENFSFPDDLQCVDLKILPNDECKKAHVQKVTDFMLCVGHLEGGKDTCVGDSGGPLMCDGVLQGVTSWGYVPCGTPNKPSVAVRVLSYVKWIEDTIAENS
Human plasma kallikrein, sequence (P03952 391-638): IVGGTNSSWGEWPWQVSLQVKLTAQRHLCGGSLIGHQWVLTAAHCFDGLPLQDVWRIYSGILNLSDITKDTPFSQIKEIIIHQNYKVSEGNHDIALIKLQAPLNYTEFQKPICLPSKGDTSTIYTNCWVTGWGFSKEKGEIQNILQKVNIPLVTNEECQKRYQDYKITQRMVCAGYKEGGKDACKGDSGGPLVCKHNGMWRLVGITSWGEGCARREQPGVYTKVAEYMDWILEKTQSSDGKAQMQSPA
Human plasma kallikrein, sequence (P03952 20-390 partner): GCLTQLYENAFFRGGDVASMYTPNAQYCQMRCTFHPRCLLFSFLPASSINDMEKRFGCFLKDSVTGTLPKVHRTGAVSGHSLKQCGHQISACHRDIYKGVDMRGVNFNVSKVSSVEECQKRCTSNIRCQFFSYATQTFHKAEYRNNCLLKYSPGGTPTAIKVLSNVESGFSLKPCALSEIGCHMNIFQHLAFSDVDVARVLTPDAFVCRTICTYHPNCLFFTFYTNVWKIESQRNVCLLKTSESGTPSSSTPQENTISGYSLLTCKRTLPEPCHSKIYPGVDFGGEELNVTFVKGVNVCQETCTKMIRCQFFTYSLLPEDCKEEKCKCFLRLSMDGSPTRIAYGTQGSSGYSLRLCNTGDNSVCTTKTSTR
Human FXIa, sequence (P03951 388-625 limits assumed): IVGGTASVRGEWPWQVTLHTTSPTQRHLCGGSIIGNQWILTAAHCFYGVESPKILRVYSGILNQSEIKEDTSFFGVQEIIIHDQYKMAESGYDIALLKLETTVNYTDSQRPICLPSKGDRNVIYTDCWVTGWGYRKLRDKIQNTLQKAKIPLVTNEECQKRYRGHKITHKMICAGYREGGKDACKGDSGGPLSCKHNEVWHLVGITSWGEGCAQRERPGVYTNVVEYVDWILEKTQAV
Human FXIa, sequence (P03951 19-387 partner limits assumed): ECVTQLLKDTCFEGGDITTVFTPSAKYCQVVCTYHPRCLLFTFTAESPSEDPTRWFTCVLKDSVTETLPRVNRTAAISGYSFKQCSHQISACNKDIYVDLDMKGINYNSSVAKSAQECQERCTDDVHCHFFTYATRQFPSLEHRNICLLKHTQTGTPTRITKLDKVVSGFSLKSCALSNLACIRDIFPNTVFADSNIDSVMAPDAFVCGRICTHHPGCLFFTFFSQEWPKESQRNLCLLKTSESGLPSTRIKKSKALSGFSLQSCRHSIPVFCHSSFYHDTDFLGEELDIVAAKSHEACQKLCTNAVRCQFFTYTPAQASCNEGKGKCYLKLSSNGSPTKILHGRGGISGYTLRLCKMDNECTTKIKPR

Row | IC50 [1] [µM] | inhibition at 40 µM [2, 4] [%] | IC50 [3] [µM] | SMILES | inhibition at 40 µM [2] [%]
1 | > 40 | 0 | 0.0302 | Nc1nn(Cc2ccc(Cn3cccnc3=O)cc2)cc1C(=O)NCCOc1cccc(Cl)c1 [Example 86, 3-amino-N-[2-(3-chlorophenoxy)ethyl]-1-({4-[(2-oxopyrimidin-1-yl)methyl]phenyl}methyl)pyrazole-4-carboxamide] | –
2 | > 40 | 0 | 9.18 | Nc1nn(Cc2ccc(-n3cccn3)nc2)cc1C(=O)NCCOc1cccc(Cl)c1 [Example 88, 3-amino-N-[2-(3-chlorophenoxy)ethyl]-1-{[6-(pyrazol-1-yl)pyridin-3-yl]methyl}pyrazole-4-carboxamide] | –
3 | > 40 | 3 | 0.731 | CC(C)C(=O)N(C)Cc1ccc(Cn2cc(C(=O)NCCOc3cccc(Cl)c3)c(N)n2)cc1 [Example 84, 3-amino-N-[2-(3-chlorophenoxy)ethyl]-1-({4-[(N,2-dimethylpropanamido)methyl]phenyl}methyl)pyrazole-4-carboxamide] | –
4 | > 40 | 47 | 0.646 | Nc1nn(Cc2ccc(Cn3ccccc3=O)cc2)cc1C(=O)NCCOc1cc(Cl)cc(Cl)c1 [Example 31, 3-amino-N-[2-(3,5-dichlorophenoxy)ethyl]-1-({4-[(2-oxopyridin-1-yl)methyl]phenyl}methyl)pyrazole-4-carboxamide] | –
5 | > 40 | 1 | 0.122 | CN(C)c1nn(Cc2ccc(Cn3ccccc3=O)cc2)cc1C(=O)NCCOc1cccc(Cl)c1 [Example 35, N-[2-(3-chlorophenoxy)ethyl]-3-(dimethylamino)-1-({4-[(2-oxopyridin-1-yl)methyl]phenyl}methyl)pyrazole-4-carboxamide] | –
6 | > 40 | 29 | 7.46 | Nc1nn(Cc2ccc(Cn3ccccc3=O)cc2)cc1C(=O)N[C@H]1CCN(c2cc(Cl)ccn2)C1 [Example 112, 3-amino-N-[(3S)-1-(4-chloropyridin-2-yl)pyrrolidin-3-yl]-1-({4-[(2-oxopyridin-1-yl)methyl]phenyl}methyl)pyrazole-4-carboxamide] | –
7 | > 40 | 4 | > 10 | CNC(=O)CN(C)c1cc(Cn2cc(C(=O)NCCOc3cccc(Cl)c3)c(N)n2)ccn1 [Example 74, 3-amino-N-[2-(3-chlorophenoxy)ethyl]-1-[(2-{methyl[(methylcarbamoyl)methyl]amino}pyridin-4-yl)methyl]pyrazole-4-carboxamide] | –
8 | > 40 | 0 | > 10 | CNC(=O)CNc1cc(Cn2cc(C(=O)NCCOc3cccc(Cl)c3)c(N)n2)ccn1 [Example 68, 3-amino-N-[2-(3-chlorophenoxy)ethyl]-1-[(2-{[(methylcarbamoyl)methyl]amino}pyridin-4-yl)methyl]pyrazole-4-carboxamide] | –
9 | > 40 | 4 | 3.02 | C[C@@H](NC(=O)c1cn(Cc2ccc(Cn3ccccc3=O)cc2)nc1N)C(=O)N(C)c1cccc(Cl)c1 [Example 117, (2R)-2-{[3-amino-1-({4-[(2-oxopyridin-1-yl)methyl]phenyl}methyl)pyrazol-4-yl]formamido}-N-(3-chlorophenyl)-N-methylpropanamide] | –

The remaining lines, values behind:

Row | SMILES | IC50 [1] [µM] | inhibition at 40 µM [2, 4] [%] | IC50 [3] [µM] | inhibition at 40 µM [2] [%]
10 | C[C@@H](COc1cccc(Cl)c1)NC(=O)c1cn(Cc2ccc(Cn3ccccc3=O)cc2)nc1N [Example 114, 3-amino-N-[(2S)-1-(3-chlorophenoxy)propan-2-yl]-1-({4-[(2-oxopyridin-1-yl)methyl]phenyl}methyl)pyrazole-4-carboxamide] | > 40 | 0 | 0.14 | –
11 | Nc1nn(Cc2cccc(N3CCCC3)n2)cc1C(=O)NCCOc1cccc(Cl)c1 [Example 53, 3-amino-N-[2-(3-chlorophenoxy)ethyl]-1-{[6-(pyrrolidin-1-yl)pyridin-2-yl]methyl}pyrazole-4-carboxamide] | > 40 | 0 | 4.73 | –
12 | CN(Cc1ccc(Cn2cc(C(=O)NCCOc3cccc(Cl)c3)c(N)n2)cc1)c1ccccn1 [Example 87, 3-amino-N-[2-(3-chlorophenoxy)ethyl]-1-[(4-{[methyl(pyridin-2-yl)amino]methyl}phenyl)methyl]pyrazole-4-carboxamide] | > 40 | 0 | 0.78 | –
13 | COCc1nn(Cc2ccc(Cn3ccccc3=O)cc2)cc1C(=O)NCCOc1ccc(F)c(Cl)c1 [Example 12, N-[2-(3-chloro-4-fluorophenoxy)ethyl]-3-(methoxymethyl)-1-({4-[(2-oxopyridin-1-yl)methyl]phenyl}methyl)pyrazole-4-carboxamide] | > 10 | 0 | 0.266 | –
14 | COCc1nn(Cc2ccc(Cn3ccccc3=O)cc2)cc1C(=O)NCCOc1ccccc1Cl [Example 6, N-[2-(2-chlorophenoxy)ethyl]-3-(methoxymethyl)-1-({4-[(2-oxopyridin-1-yl)methyl]phenyl}methyl)pyrazole-4-carboxamide] | > 10 | 0 | 1.89 | –
15 | Nc1nn(Cc2ccc(-c3ncccn3)cc2)cc1C(=O)NCCOc1cccc(Cl)c1 [Example 79, 3-amino-N-[2-(3-chlorophenoxy)ethyl]-1-{[4-(pyrimidin-2-yl)phenyl]methyl}pyrazole-4-carboxamide] | > 40 | 9 | 5.87 | –
16 | CN(C)C(=O)N(C)Cc1ccc(Cn2cc(C(=O)NCCOc3cccc(Cl)c3)c(N)n2)cc1 [Example 83, 3-amino-N-[2-(3-chlorophenoxy)ethyl]-1-[(4-{[(dimethylcarbamoyl)(methyl)amino]methyl}phenyl)methyl]pyrazole-4-carboxamide] | > 40 | 0 | 0.298 | –
17 | Nc1nn(Cc2ccc(CN3CCCCC3=O)cc2)cc1C(=O)NCCOc1cccc(Cl)c1 [Example 77, 3-amino-N-[2-(3-chlorophenoxy)ethyl]-1-({4-[(2-oxopiperidin-1-yl)methyl]phenyl}methyl)pyrazole-4-carboxamide] | > 40 | 0 | 0.112 | –
18 | C[C@H](NC(=O)c1cn(Cc2ccc(Cn3ccccc3=O)cc2)nc1N)C(=O)N(C)c1cccc(Cl)c1 [Example 116, (2S)-2-{[3-amino-1-({4-[(2-oxopyridin-1-yl)methyl]phenyl}methyl)pyrazol-4-yl]formamido}-N-(3-chlorophenyl)-N-methylpropanamide] | > 40 | 0 | 0.39 | –
19 | Cc1cc(Cl)cc(OCCNC(=O)c2cn(Cc3ccc(Cn4ccccc4=O)cc3)nc2N)c1 [Example 33, 3-amino-N-[2-(3-chloro-5-methylphenoxy)ethyl]-1-({4-[(2-oxopyridin-1-yl)methyl]phenyl}methyl)pyrazole-4-carboxamide] | > 40 | 29 | 0.114 | –
20 | COCc1nn(Cc2ccc(Cn3ccccc3=O)cc2)cc1C(=O)NCCOc1cccc(Cl)c1 [Example 8, N-[2-(3-chlorophenoxy)ethyl]-3-(methoxymethyl)-1-({4-[(2-oxopyridin-1-yl)methyl]phenyl}methyl)pyrazole-4-carboxamide] | > 10 | 0 | 0.0166 | –
21 | N#Cc1ccc(Cl)cc1OCCNC(=O)c1cn(Cc2ccc(Cn3ccccc3=O)cc2)nc1N [Example 32, 3-amino-N-[2-(5-chloro-2-cyanophenoxy)ethyl]-1-({4-[(2-oxopyridin-1-yl)methyl]phenyl}methyl)pyrazole-4-carboxamide] | > 40 | 10 | 0.0101 | –
22 | Nc1nn(Cc2ccnc(-n3cccn3)c2)cc1C(=O)NCCOc1cccc(Cl)c1 [Example 66, 3-amino-N-[2-(3-chlorophenoxy)ethyl]-1-{[2-(pyrazol-1-yl)pyridin-4-yl]methyl}pyrazole-4-carboxamide] | > 40 | 0 | 4.92 | –
23 | Nc1nn(Cc2ccc(Br)cc2)cc1C(=O)NCCOc1cccc(Cl)c1 [Example 55, 3-amino-1-[(4-bromophenyl)methyl]-N-[2-(3-chlorophenoxy)ethyl]pyrazole-4-carboxamide] | > 40 | – | 6.41 | 80
24 | Nc1nn(Cc2ccc(C(=O)O)cc2)cc1C(=O)NCCOc1cccc(Cl)c1 [Example 69, 4-[(3-amino-4-{[2-(3-chlorophenoxy)ethyl]carbamoyl}pyrazol-1-yl)methyl]benzoic acid] | > 40 | – | > 10 | 0
25 | Nc1nn(Cc2cccc(C(=O)N3CCCC3)c2)cc1C(=O)NCCOc1cccc(Cl)c1 [Example 70, 3-amino-N-[2-(3-chlorophenoxy)ethyl]-1-({3-[(pyrrolidin-1-yl)carbonyl]phenyl}methyl)pyrazole-4-carboxamide] | > 40 | 6 | > 10 | –
26 | Nc1nn(Cc2ccc(Cn3ccccc3=O)cc2)cc1C(=O)NCCCc1cccc(Cl)c1 [Example 42, 3-amino-N-[3-(3-chlorophenyl)propyl]-1-({4-[(2-oxopyridin-1-yl)methyl]phenyl}methyl)pyrazole-4-carboxamide] | > 40 | 0 | 0.0032 | –
